{"source": "patent US12544421B2", "about": "“VDAC inhibitors for treating inflammatory bowel diseases” (THE NATIONAL INSTITUTE FOR BIOTECHNOLOGY IN THE NEGEV LTD., priority 2018, dated 2026)", "key": {"DSS-induced IBD mice [1]": {"system": "DSS-induced IBD mice", "assay": "Dextran sodium sulfate (DSS)-induced colitis / IBD mouse model: weight, survival, colon and cecum length, clinical score, spleen weight", "assay_type": "in vivo, C57BL/6 mice", "source_text": "Healthy female, specific pathogen free (SPF) C57BL/6 (H-2b), 6-7 weeks old mice were obtained from Invigo, Israel. Animal housing and care conditions was maintained according to the experimental protocols approved by the Institutional Animal Care and Use Committee. Mice were weighed and examined for health.\nAnimals were provided ad libitum a commercial rodent diet, and free access to either regular or DSS-containing drinking water for the respective designated test groups, supplied to each cage via polyethylene bottles with stainless steel sipper tubes.\nDextran sodium sulfate (DSS)-induced colitis was used.\nAll animals were subjected to experimental Colitis induction by providing DSS in the drinking water, continuously supplied ad libitum for 6 days, followed subsequently by 8 days of regular drinking water until study termination on day 14 (FIG. 1A).\nDetermination of individual body weights of mice was performed before disease induction and thereafter once daily, starting from study day 0 until the time of scheduled euthanasia of survivors on Day 14.\nAnimals were observed, and clinical signs recorded once daily starting from study day 1 and onwards until the time of scheduled euthanasia. Evaluation of clinical signs was scored according to the grading system listed below.\nImmediately after euthanasia, the entire large intestine from the ileo-caecal junction to the anus were removed, weighed and the length of the colon was measured using a ruler.\nThe Maximal Scores of all mice in each group was be summed, and the MMS calculation was as follows: […]\nThe mean colon length of each group was calculated, and the percentage of shortening of the colon was calculated as follows: […]\nThe mean caecum length of each group was calculated, and the percentage of shortening of caecum was calculated as follows: […]"}, "[2]": {"system": "colon of DSS-induced IBD mice", "assay": "Histological sections of colon of DSS-induced IBD mice (H&E, anti-VDAC1 immunostaining)", "assay_type": "in vivo, C57BL/6 mice", "source_text": "FIGS. 6A-6D are micrographs of histological sections of DSS-induced IBD in C57BL/6 mice, stained with hematoxylin and eosin (H&E). Scale bar represents 100 μm. (6A) Control; (6B) 2.5% DSS; (6C) DSS+VBIT-4; and (6D) DSS+VBIT-12.\nFIGS. 7A-7D are micrographs of histological sections of DSS-induced IBD in C57BL/6 mice highlighting the effects of VBIT-4 and VIBT-12 on the colon wall thickness and lymphatic infiltration thereto. (7A) Control; (7B) 2.5% DSS; (7C) DSS+VBIT-12; and […] DSS+VBIT-4.\nFIGS. 8A-8D are micrographs of histological sections of DSS-induced IBD in C57BL/6 mice, immunostained with an anti VDAC-1 specific antibody. (8A) Control; (8B) 2.5% DSS; (8C) 2.5% DSS+VBIT-4; and (8D) 2.5% DSS+VBIT-12.\nIBD colons were also found to contain large lymphatic sacks and also experienced high infiltration of inflammatory cells towards the colonic lumen."}, "DSS-induced IBD mice [3]": {"system": "DSS-induced IBD mice", "assay": "Dextran sodium sulfate (DSS)-induced colitis / IBD mouse model: weight, survival, colon and cecum length, clinical score, spleen weight", "assay_type": "in vivo, C57BL/6 mice", "remark": "listed apart in the source"}, "CT-26 cells and MEFs": {"system": "CT-26 cells and MEFs", "assay": "H2O2-induced mtDNA release from cells in culture", "assay_type": "cell-based, mouse", "settings": "20 μM compound, 100 or 200 μM H2O2, 20 h, CT-26 and MEFs", "experimental": "Murine colorectal carcinoma cell line from a BALB/c mouse (CT26) and mouse embryonic fibroblast (MEF) cell lines were grown at 37° C. under an atmosphere of 95% air and 5% CO2 in DMEM supplemented with 10% FBS, 2 mM L-glutamine, 1,000 U/ml penicillin and 1 mg/ml streptomycin.\nCells were seeded (150,000 cells/well) in 6-well culture dishes to 40-60% confluence. After 24 h cells were incubated for 20 h with 100 or 200 μM of H2O2 in the absence or the presence of VBIT-4 and VBIT-12. Cells washed and subjected to mtDNA release as described below. For VDAC1 silencing, CT-26 cells were seeded (150,000 cells/well) in 6-well culture dishes to 40-60% confluence. After 24 h cells were transfected with 75 nM of non-targeting siRNA (si-NT) or siRNA targeting VDAC1 recognizing both human and mouse VDAC1 (si-m/hVDAC1) using the JetPRIME transfection reagent, according to the manufacturers' instructions. Forty-eight (48) h post-transfection with either si-NT or si-m/hVDAC1, cells were incubated for 20 h with 100 μM of H2O2. Cells washed and subject to mtDNA release as described below.\nCells (e.g., CT-26, MFFs) were re-suspended in 170 μl digitonin buffer containing 150 mM NaCl, 50 mM HEPES pH 7.4, and 25 μg/ml digitonin (EMD Millipore Corp). The homogenates are incubated on a rotator for 10 min at room temperature, followed by centrifugation at 16,000 g for 25 min at 4° C. […]"}, "[4]": {"settings": "DSS-induced IBD mice, 20 mg/kg, n=6"}, "[5]": {"settings": "DSS-induced IBD mice, 20 mg/kg, value before the brackets"}, "[6]": {"settings": "DSS-induced IBD mice, 20 mg/kg, value in brackets"}}, "data": [{"smiles": "O=C(CC(CO)N1CCN(c2ccc(OC(F)(F)F)cc2)CC1)Nc1ccc(Cl)cc1", "note": "(centres unmarked) [VBIT-4, N-(4-chlorophenyl)-4-hydroxy-3-(4-(4-(trifluoromethoxy)phenyl)-piperazin-1-yl)butanamide]", "values": [{"measurement": "% Mortality", "setting": "DSS-induced IBD mice [1]; 2.5% DSS, 20 mg/kg, n=6", "value": 33.3, "unit": "%"}, {"measurement": "died (number of mice)", "setting": "DSS-induced IBD mice [1]; 2.5% DSS, 20 mg/kg, n=6", "value": 2}, {"measurement": "Body weight at experiment termination versus DSS-induced IBD mice (in words)", "setting": "DSS-induced IBD mice [1]; DSS-induced IBD mice", "value": "higher weights"}, {"measurement": "Survival rate at experiment termination versus DSS-induced IBD mice (in words)", "setting": "DSS-induced IBD mice [1]; DSS-induced IBD mice", "value": "increased survival rates"}, {"measurement": "Cecum length, mm", "setting": "DSS-induced IBD mice [1]; [4]", "value": "8.7 ± 2.4", "unit": "mm"}, {"measurement": "MMS (mean maximal score; stool consistency and rectal bleeding, 0-5)", "setting": "DSS-induced IBD mice [1]; [4]", "value": "3.05 ± 0.55"}, {"measurement": "Colon length, mm", "setting": "DSS-induced IBD mice [1]; DSS-induced IBD mice, 20 mg/kg, n=6, at termination", "value": "48.00 ± 4.84", "unit": "mm"}, {"measurement": "Change of weight, day 1 to day 8 (absolute)", "setting": "DSS-induced IBD mice [1]; [5]", "value": "−3.2", "unit": "gr"}, {"measurement": "Change of weight, day 8 to day 15 (absolute)", "setting": "DSS-induced IBD mice [1]; [5]", "value": 1.7, "unit": "gr"}, {"measurement": "Change (%) of weight, day 1 to day 8", "setting": "DSS-induced IBD mice [1]; [6]", "value": "−20.8", "unit": "%"}, {"measurement": "Colon, % Shortening relative to the DSS-induced control (=100)", "setting": "DSS-induced IBD mice [1]; [6]", "value": 73, "unit": "%"}, {"measurement": "Cecum, % Shortening", "setting": "DSS-induced IBD mice [1]; DSS-induced IBD mice, 20 mg/kg, versus naive", "value": 33.1, "unit": "%"}, {"measurement": "Colon, % Shortening", "setting": "DSS-induced IBD mice [1]; DSS-induced IBD mice, 20 mg/kg, versus naive, value before the brackets", "value": 26.2, "unit": "%"}, {"measurement": "Weight (gr) day 1", "setting": "DSS-induced IBD mice [1]; DSS-induced IBD mice, compound 20 mg/kg, day 1", "value": 15.4, "unit": "gr"}, {"measurement": "Weight (gr) day 8", "setting": "DSS-induced IBD mice [1]; DSS-induced IBD mice, compound 20 mg/kg, day 8", "value": 12.2, "unit": "gr"}, {"measurement": "Colon histology: inflammatory cells and infiltration", "setting": "[2]; compared to IBD mice", "value": "fewer inflammatory cells with reduced/no infiltration activity"}, {"measurement": "Colon histology: colon wall thickness / villi", "setting": "[2]; compared to IBD mice and non-IBD control", "value": "thinner colon walls"}, {"measurement": "Change (%) of weight, day 8 to day 15", "setting": "DSS-induced IBD mice [3]; 20 mg/kg, value in brackets", "value": 13.9, "unit": "%"}, {"measurement": "Weight (gr) day 15", "setting": "DSS-induced IBD mice [3]; compound 20 mg/kg, day 15", "value": 13.9, "unit": "gr"}, {"measurement": "Release of mtDNA from cells induced by H2O2", "setting": "CT-26 cells and MEFs", "value": "inhibited"}]}]}
